Results as given in ChEMBL document CHEMBL3272144, “Application of the Free-Wilson technique to structurally related series of homologues. Quantitative structure-activity relationship studies of narcotic analgetics” (1977).

Species on record: Mus musculus
Experiment: Analgesic activity in mouse by hot-plate method
Format: functional

Row | SMILES | log(1/C)
1 | C[C@@H]1C2Cc3ccc(O)cc3[C@@]1(c1ccccc1)CCN2C (stereo in doubt; 88) | 1.99
2 | CN1CC[C@@]2(c3ccccc3)CC1Cc1ccccc12 (stereo in doubt; 89) | 1.87
3 | C=CC#CCN1CC[C@]2(CC)c3cc(O)ccc3CC1[C@@H]2CC (stereo in doubt; 90) | 1.79
4 | CC[C@H]1C2Cc3ccc(OC)cc3[C@@]1(CC)CCN2C (stereo in doubt; 91) | 1.62
5 | C[C@@H]1C2Cc3ccc(O)cc3[C@@]1(C)CCN2C (stereo in doubt; 92) | 1.6
6 | CC[C@H]1C2Cc3ccc(O)cc3[C@@]1(CC)CCN2C (stereo in doubt; 93) | 1.51
7 | CCC[C@@]12CCN(C)C(Cc3ccc(O)cc31)[C@@H]2C (stereo in doubt; 94) | 1.38
8 | CC[C@@H]1C2Cc3ccc(O)cc3[C@@]1(CC)CCN2C (stereo in doubt; 95) | 1.31
9 | CN1CC[C@H]2CC1Cc1ccc(O)cc12 (stereo in doubt; 96) | 1.22
10 | CC[C@H]1C2Cc3ccc(O)cc3[C@@]1(C)CCN2C (stereo in doubt; 97) | 1.2
11 | CN1CC[C@@]2(C)CC1Cc1ccc(O)cc12 (stereo in doubt; 98) | 1.04
12 | CC[C@@]12CCN(C)C(Cc3ccc(O)cc31)C2 (stereo in doubt; 99) | 1.03
